# Target: T1, Recombinant human liver GK1 (GST-GK) (Homo sapiens, UniProt P35557)
# T1 construct: made in house; host or cells: E. coli
# T1 sequence (P35557 1-466 isoform P35557-2): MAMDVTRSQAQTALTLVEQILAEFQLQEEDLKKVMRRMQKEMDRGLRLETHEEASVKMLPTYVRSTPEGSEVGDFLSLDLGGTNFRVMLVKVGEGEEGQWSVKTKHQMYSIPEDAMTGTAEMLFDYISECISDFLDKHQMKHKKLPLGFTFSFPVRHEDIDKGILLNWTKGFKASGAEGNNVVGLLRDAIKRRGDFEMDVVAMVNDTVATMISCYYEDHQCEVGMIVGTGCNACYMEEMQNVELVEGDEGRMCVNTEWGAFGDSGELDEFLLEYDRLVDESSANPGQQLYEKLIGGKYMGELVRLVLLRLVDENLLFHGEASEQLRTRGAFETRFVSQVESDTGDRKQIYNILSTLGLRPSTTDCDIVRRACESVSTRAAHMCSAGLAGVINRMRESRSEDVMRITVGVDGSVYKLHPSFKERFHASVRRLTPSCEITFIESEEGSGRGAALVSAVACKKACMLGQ
# Experiment: In vitro glucokinase activity (G6PDH-coupled NADH assay)
# Format: biochemical
# Settings: 30° C., 5 mM D-glucose, 10% DMSO
# Outline: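 Activation measured as the rate of OD340 rise from G6PDH-coupled NADH production, relative to 10% DMSO control, reported as SC1.5 (concentration for 50% activity increase). Conditions: 30° C, pH 7.1 Hepes, 5 mM glucose, 1 mM ATP, purified recombinant GST-human GK1, compound preincubated 10 min before enzyme addition.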
row,SMILES,SC1.5 (concentration of activator that produced a 50% increase in the activity of GK) [µM]
1,"CC(C)C[C@@H](C(=O)Nc1ccn(C[C@@H]2COC(C)(C)O2)n1)N1CC(Oc2cccc(N3CCCC3)c2F)=CC1=O [Example 141, (S)-2-[4-(2-Fluoro-3-pyrrolidin-1-yl-phenoxy)-2-oxo-2,5-dihydro-pyrrol-1-yl]-4-methyl-pentanoic acid [1-((R)-2,2-dimethyl-[1,3]dioxolan-4-yl-methyl)-1H-pyrazol-3-yl]-amide]",0.516
2,"Cc1ccccc1OC1=CC(=O)N([C@@H](CC(C)C)C(=O)Nc2ccn(CCO[Si](C)(C)C(C)(C)C)n2)C1 [Example 121, (S)-4-Methyl-2-(2-oxo-4-o-tolyloxy-2,5-dihydro-pyrrol-1-yl)-pentanoic acid {1-[2-(t-butyl-dimethyl-silanyloxy)-ethyl]-1H-pyrazol-3-yl}-amide]",0.746
3,"CCOc1cccc(OC2=CC(=O)N([C@@H](CC(C)C)C(=O)Nc3cnc([C@H]4COC(C)(C)O4)cn3)C2)c1F [Example 150, (S)-2-[4-(3-Ethoxy-2-fluoro-phenoxy)-2-oxo-2,5-dihydro-pyrrol-1-yl]-4-methyl-pentanoic acid [5-((S)-2,2-dimethyl-[1,3]dioxolan-4-yl)-pyrazin-2-yl]-amide]",0.2
4,"CC(C)C[C@@H](C(=O)Nc1ccn(C[C@@H](O)CO)n1)N1CC(Oc2cccc(Cl)c2F)=CC1=O [Example 97, (S)-2-[4-(3-Chloro-2-fluoro-phenoxy)-2-oxo-2,5-dihydro-pyrrol-1-yl]-4-methyl-pentanoic acid [1-((R)-2,3-dihydroxy-propyl)-1H-pyrazol-3-yl]-amide]",0.168
5,"COC1=CC(=O)N([C@@H](CC2CCCC2)C(=O)Nc2ccn(CC(C)(C)O)n2)C1 [Example 1, (S)-3-Cyclopentyl-N-[1-(2-hydroxy-2-methyl-propyl)-1H-pyrazol-3-yl]-2-(4-methoxy-2-oxo-2,5-dihydro-pyrrol-1-yl)-propionamide]",3.771
6,"COc1ccc(OC2=CC(=O)N([C@@H](CC(C)C)C(=O)Nc3ccn(C[C@@H](O)CO)n3)C2)cc1 [Example 99, (S)-2-[4-(4-Methoxy-phenoxy)-2-oxo-2,5-dihydro-pyrrol-1-yl]-4-methyl-pentanoic acid [1-((R)-2,3-dihydroxy-propyl)-1H-pyrazol-3-yl]-amide]",0.747
7,"COc1cccc(OC2=CC(=O)N([C@@H](CC3CCCC3)C(=O)Nc3ccn(CC(C)(C)O)n3)C2)c1Cl [Example 54, (S)-2-[4-(2-chloro-3-methoxy-phenoxy)-2-oxo-2,5-dihydro-pyrrol-1-yl]-3-cyclopentyl-N-[1-(2-hydroxy-2-methyl-propyl)-1H-pyrazol-3-yl]-propionamide]",0.008
8,"CC(C)(O)Cn1ccc(NC(=O)[C@H](CC2CCCCC2)N2CC(Oc3ccccc3Cl)=CC2=O)n1 [Example 61, (S)-2-[4-(2-Chloro-phenoxy)-2-oxo-2,5-dihydro-pyrrol-1-yl]-3-cyclohexyl-N-[1-(2-hydroxy-2-methyl-propyl)-1-H-pyrazol-3-yl]-propionamide]",0.006
9,"COCCn1ccc(NC(=O)[C@H](CC2CCCCC2)N2CC(Oc3ccccc3C(F)(F)F)=CC2=O)n1.Cl [Example 91, (S)-3-Cyclohexyl-N-[1-(2-methoxy-ethyl)-1H-pyrazol-3-yl]-2-[2-oxo-4-(2-trifluoromethyl-phenoxy)-2,5-dihydro-pyrrol-1-yl]-propionamide Hydrochloride]",0.039
10,"O=C(Nc1ccn(C[C@H](O)CO)n1)[C@H](CC1CCCCC1)N1CC(Oc2c(F)cccc2F)=CC1=O [Example 37, (S)-3-Cyclohexyl-2-[4-(2,6-difluoro-phenoxy)-2-oxo-2,5-dihydro-pyrrol-1-yl]-N-[1-((S)-2,3-dihydroxy-propyl)-1H-pyrazol-3-yl]-propionamide]",0.036
11,"CC(C)(O)Cn1ccc(NC(=O)[C@H](CC2CCCCC2)N2CC(Oc3cccc(OC(F)(F)F)c3)=CC2=O)n1 [Example 211, (S)-3-cyclohexyl-N-[1-(2-hydroxy-2-methyl-propyl)-1H-pyrazol-3-yl]-2-[2-oxo-4-(3-trifluoromethoxy-phenoxy)-2,5-dihydro-pyrrol-1-yl]-propionamide]",0.055
12,"Cc1ccccc1OC1=CC(=O)N([C@@H](CC(C)C)C(=O)Nc2ccn(CCO)n2)C1 [Example 122, (S)-4-Methyl-2-(2-oxo-4-o-tolyloxy-2,5-dihydro-pyrrol-1-yl)-pentanoic acid [1-(2-hydroxy-ethyl)-1H-pyrazol-3-yl]-amide]",0.56
13,"CC(C)(O)Cn1ccc(NC(=O)[C@H](CC2CCCCC2)N2CC(Oc3ccc(Cl)cc3Cl)=CC2=O)n1 [Example 202, (S)-3-cyclohexyl-2-[4-(2,4-dichloro-phenoxy)-2-oxo-2,5-dihydro-pyrrol-1-yl]-N-[1-(2-hydroxy-2-methyl-propyl)-1H-pyrazol-3-yl]-propionamide]",0.012
14,"CC(C)C[C@@H](C(=O)Nc1ccn(C[C@@H](O)CO)n1)N1CC(Oc2cccc3c2CCCC3)=CC1=O [Example 98, (S)-4-Methyl-2-[2-oxo-4-(5,6,7,8-tetrahydro-naphthalen-1-yloxy)-2,5-dihydro-pyrrol-1-yl]-pentanoic acid [1-((R)-2,3-dihydroxy-propyl)-1H-pyrazol-3-yl]-amide]",0.212
15,"O=C(Nc1ccn(C[C@@H](O)CO)n1)[C@H](CC1CCC1)N1CC(Oc2ccccc2Cl)=CC1=O [Example 176, (S)-2-[4-(2-chloro-phenoxy)-2-oxo-2,5-dihydro-pyrrol-1-yl]-3-cyclobutyl-N-[1-((R)-2,3-dihydroxy-propyl)-1H-pyrazol-3-yl]-propionamide]",0.05
16,"CCOc1cccc(OC2=CC(=O)N([C@@H](CC(C)C)C(=O)Nc3ccn(CC(C)(C)O)n3)C2)c1F [Example 114, (S)-2-[4-(3-Ethoxy-2-fluoro-phenoxy)-2-oxo-2,5-dihydro-pyrrol-1-yl]-4-methyl-pentanoic acid [1-(2-hydroxy-2-methyl-propyl)-1H-pyrazol-3-yl]-amide]",0.02
17,"CC(C)C[C@@H](C(=O)Nc1ccn(C[C@@H](O)C[C@@H](O)CC(=O)O)n1)N1CC(Oc2ccccc2Cl)=CC1=O [Example 194, (3R,5S)-6-(3-{(S)-2-[4-(2-chloro-phenoxy)-2-oxo-2,5-dihydro-pyrrol-1-yl]-4-methylpentanoylamino}-pyrazol-1-yl)-3,5-dihydroxy-hexanoic acid]",0.695
18,"CC(C)C[C@@H](C(=O)Nc1ccn(C[C@@H](O)CO)n1)N1CC(Oc2cccc(Br)c2F)=CC1=O [Example 129, (S)-2-[4-(3-Bromo-2-fluoro-phenoxy)-2-oxo-2,5-dihydro-pyrrol-1-yl]-4-methyl-pentanoic acid [1-((R)-2,3-dihydroxy-propyl)-1H-pyrazol-3-yl]-amide]",0.163
19,"CC(C)C[C@@H](C(=O)Nc1ccn(C)n1)N1CC(Oc2cccc(O)c2F)=CC1=O [Example 127, (S)-2-[4-(2-Fluoro-3-hydroxy-phenoxy)-2-oxo-2,5-dihydro-pyrrol-1-yl]-4-methyl-pentanoic acid (1-methyl-1H-pyrazol-3-yl)-amide]",0.414
20,"CSc1ccccc1OC1=CC(=O)N([C@@H](CC2CCCCC2)C(=O)Nc2ccn(CC(C)(C)O)n2)C1 [Example 196, (S)-3-cyclohexyl-N-[1-(2-hydroxy-2-methyl-propyl)-1H-pyrazol-3-yl]-2-[4-(2-methylsulfanyl-phenoxy)-2-oxo-2,5-dihydro-pyrrol-1-yl]-propionamide]",0.007
21,"CC(C)C[C@@H](C(=O)Nc1ccn(C[C@@H](O)CO)n1)N1CC(Oc2ccc3c(c2)OCCO3)=CC1=O [Example 168, (S)-2-[4-(2,3-dihydro-benzo[1,4]dioxin-6-yloxy)-2-oxo-2,5-dihydro-pyrrol-1-yl]-4-methyl-pentanoic acid [1-((R)-2,3-dihydroxy-propyl)-1H-pyrazol-3-yl]-amide]",0.437
22,"CC(C)NC1=CC(=O)N([C@@H](CC2CCCC2)C(=O)Nc2ccn(CC(C)(C)O)n2)C1 [Example 234, (S)-3-cyclopentyl-N-[1-(2-hydroxy-2-methyl-propyl)-1H-pyrazol-3-yl]-2-(4-isopropylamino-2-oxo-2,5-dihydro-pyrrol-1-yl)-propionamide]",4.624
23,"O=C(Nc1ccn(C[C@@H](O)CO)n1)[C@H](Cc1ccccc1Cl)N1CC(Oc2ccccc2Cl)=CC1=O [Example 189, (S)-2-[4-(2-chloro-phenoxy)-2-oxo-2,5-dihydro-pyrrol-1-yl]-N-[1-((R)-2,3-dihydroxy-propyl)-1H-pyrazol-3-yl]-3-(2-chlorophenyl)-propionamide]",0.894

# Source: US7741327B2 (Hoffmann-La Roche Inc., priority 2008, dated 2010)
